Data: patent publication US7611721B1, “Adjuvant combination formulations” (priority 2000, dated 2009)

What was measured:
[1] = test system: P815 cells pulsed with HIVMN CTL epitope peptide; test: CTL analysis of spleen cells (chromium release); assay type: cell-based; conditions: separate experiments; Balb/c mice immunized with peptide
Method: FIG. 5 depicts the CTL activity of spleen cells isolated from mice seven days after secondary immunization. Spleen cells were harvested from groups of three Balb/c mice immunized on days 0 and 21 with 50 μg T1SP10MN(A) […] formulated with 50 μg MPL™ in 1% SE with or without 10 μg GM-CSF. Cells were cultured with the HIVMN CTL epitope peptide for seven days. IL-2 was added to the cultures for the last five days. Effector spleen cells were added to chromium-labelled P815 cells pulsed with HIVMN, another strain designated HIVIIIB or no peptide at the indicated ratios. Percent CTL activity was calculated as: […]
The protocols of Experiment 6 were followed regarding immunization of mice. The CTL activity of spleen cells isolated from mice seven days after secondary immunization was assessed. MPL™ SE was formulated with 50 μg MPL™ in 1% SE, with or without 10 μg GM-CSF, plus 50 μg T1SP10MN(A) (+Cys).
For CTL analysis, spleen cells were removed from immunized mice 14 days after primary, and seven days after secondary immunization. A protocol previously described (34) was essentially followed. […] Percent CTL activity was calculated as the percentage of chromium release using ((specific chromium release−spontaneous chromium release)/(maximal chromium release−spontaneous chromium release))×100. Chromium release was assessed after a six hour incubation period. […]

[2] = test system: spleen cells; test: Spleen cell proliferation in response to RSV F protein; assay type: cell-based, Balb/c mice; conditions: Experiment 12; spleen cells 14 days post-secondary immunization; 2.5 μg/ml RSV F protein, 96 hours; normalized to ConA
Method: Spleen cells were harvested at 14 days post-secondary immunization and were established in culture at a density of 5×10^5 cells. Cells were cultured for a total of 96 hours. ^3H-thymidine was added to cultures for the last 18 hours. Data are presented as a proliferation index normalized to cells stimulated in culture with ConA ([mean cpm Antigen/mean cpm ConA]−[mean cpm medium/mean cpm ConA])×100. As a result, cells cultured in medium have a background proliferation of 0.

3-O-deacylated monophosphoryl lipid A [MPL ™]
Peptide-specific CTL responses [1]: < 30% | Normalized Proliferation Index [2]: 0.4
